pIC50: −log10 of the molar value.
Test system: 171881-019-R-J1-PDC complex spheroid viability
Experiment: Anticancer human tumor 171881-019-R-J1-PDC patient-derived invasive breast carcinoma cell line growth inhibition
Conditions: for pIC50: curve of first compound; for viability, T/C: stronger effect = lower value
Excerpt: Multicellular complex tumor spheroid response to LSD1 Inhibitor Iadademstat in combination with a variety of drugs and investigational agents in selected tumor cell lines
The current study was undertaken to assess response to LSD1 inhibitors in combination with standard-of-care drugs and investigational agents in solid tumor complex spheroid models as well as in the K-562 leukemia. Complex spheroids include a stromal component modeled by human endothelial cells (HUVEC) and fibroblasts modeled by human mesenchymal stem cells (MSCs). The concentration ranges selected for each drug and investigational agent were based upon clinically achievable concentrations if the clinical Cmax of the agent was known.
Compounds. The drugs and investigational agents used in this study are listed on Table 1. All of the agents used, including staurosporine (NSC755774) and gemcitabine (NSC613327), were obtained from the Developmental Therapeutics Program, NCI. FDA-approved anticancer drugs are available from the NCI at http://dtp.nci.nih.gov/branches/dscb/oncology_drugset_explanation.html. Drugs and investigational agents were >95% pure by proton nuclear magnetic resonance (NMR) and liquid chromatography/mass spectrometry (LC/MS). Stock solutions were prepared at 400x in DMSO, stored at -70 degrees C, and diluted in fresh medium prior to their use. The final concentration of DMSO in cell culture wells never exceeded 0.25% (v/v). The FDA-approved anticancer drug set is available from the Developmental Therapeutics Program at https://dtp.cancer.gov/organization/dscb/obtaining/available_plates.htm. All drugs and investigational agents were tested over a range starting from a high concentration at or near the clinical Cmax and decreasing in half-log increments. If the clinical Cmax for an agent had not been determined, the highest concentration tested was 10 microM.
Cell Lines. The patient-derived cancer cell (PDC) lines: 292921-168-R-J2-PDC, K24384-001-R-PDC, and 521955-158-R2-J5-PDC pancreatic carcinomas, 556581-035-R-J1 ovarian carcinoma, 324938-238-R-J1-PDC, 855422-203-R-J1-PDC and 883617-216-R-J1-PDC urothelial bladder carcinomas, 743489-274-T-PDC renal cell carcinoma, 138582-R-J1 Merkel cell tumor, K60290-347-R-J1 and K57222-313-R-J1-PDC glioblastomas, 653999-131-R-J2-PDC, LG0703-F948-PDC, and 349418-098-R-PDC non-small cell lung carcinomas, 885512-296-R-J2-PDC, 171881-019-R-J1-PDC breast carcinomas and 186277-243-T-J2-PDC and 233499-124-R-J2-PDC colon carcinomas were obtained from the NCI Patient-Derived Models Repository (PDMR, https://pdmr.cancer.gov). The established cell lines NCI/ADR-RES (RRID:CVCL_14520 and OVCAR-5 (RRID:CVCL_1628) ovarian carcinomas, 786-O (RRID:CVCL_1051) and A498 (RRID:CVCL_A498) renal cell carcinoma, NCI-H211 (ATCC, cat. CRL-5824; RRID:CVCL_1529), NCI-H196 (ATCC, cat. CRL-5823, RRID:CVCL_1509), SW 1271 (ATCC, cat. CRL-2177, RRID:CVCL_1716) and NCI-H1876 (ATCC, cat. CRL-5902, RRID:CVCL_1503) small cell lung carcinomas, MDA-MB-231 (RRID:CVCL_0062) and MDA-MB-468 (RRID:CVCL_0419)breast carcinomas (10-12). Pooled donor human umbilical vein endothelial cells (HUVEC, Lonza, cat. CC-2519) and human mesenchymal stem cells (hMSC, Lonza, cat. PT-2501) were purchased from Lonza (Walkersville, MD).
Cell Culture. All cells were maintained in an incubator at 37 degrees C and 5% CO2 with 95% humidity. The PDC lines were cultured according to standard operating procedures established by the NCI PDMR (https://pdmr.cancer.gov). Briefly all PDCs were thawed and cultured in Matrigel-coated flasks prepared with a working solution of 1X Ham's F-12 nutrient mix, without supplementation (Invitrogen, Waltham, MA, cat. 11765054), 100 U/mL penicillin-streptomycin (Invitrogen, cat. 15140122), and 2.5% Matrigel (Corning Inc., Corning, NY, cat. 354248) for the first three passages. […]

[1] = second compound 0.1 µM, first compound 0.00949 µM
[2] = second compound 0.1 µM, first compound 0.03 µM
[3] = second compound 0.1 µM, first compound 0.0949 µM
[4] = second compound 0.1 µM, first compound 0.3 µM
[5] = second compound 0.316 µM, first compound 0.00949 µM
[6] = second compound 0.316 µM, first compound 0.03 µM
[7] = second compound 0.316 µM, first compound 0.0949 µM
[8] = second compound 0.316 µM, first compound 0.3 µM
[9] = second compound 1 µM, first compound 0.00949 µM
[10] = second compound 1 µM, first compound 0.03 µM
[11] = second compound 1 µM, first compound 0.0949 µM
[12] = second compound 1 µM, first compound 0.3 µM
[13] = second compound 3.16 µM, first compound 0.00949 µM
[14] = second compound 3.16 µM, first compound 0.03 µM
[15] = second compound 3.16 µM, first compound 0.0949 µM
[16] = second compound 3.16 µM, first compound 0.3 µM
[17] = second compound 10 µM, first compound 0.00949 µM
[18] = second compound 10 µM, first compound 0.03 µM
[19] = second compound 10 µM, first compound 0.0949 µM
[20] = second compound 10 µM, first compound 0.3 µM
[21] = second compound 0.1 µM, first compound 0.949 µM
[22] = second compound 0.1 µM, first compound 3 µM
[23] = second compound 0.316 µM, first compound 0.949 µM
[24] = second compound 0.316 µM, first compound 3 µM
[25] = second compound 1 µM, first compound 0.949 µM
[26] = second compound 1 µM, first compound 3 µM
[27] = second compound 3.16 µM, first compound 0.949 µM
[28] = second compound 3.16 µM, first compound 3 µM
[29] = second compound 10 µM, first compound 0.949 µM
[30] = second compound 10 µM, first compound 3 µM
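Further: spheroids exposed to agents for 7 days after 3 days growth.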

SMILES	pIC50 (second compound 0.1 µM)	pIC50 (second compound 0.316 µM)	pIC50 (second compound 1 µM)	pIC50 (second compound 3.16 µM)	pIC50 (second compound 10 µM)	viability, T/C [1] [%]	viability, T/C [2] [%]	viability, T/C [3] [%]	viability, T/C [4] [%]	viability, T/C [5] [%]	viability, T/C [6] [%]	viability, T/C [7] [%]	viability, T/C [8] [%]	viability, T/C [9] [%]	viability, T/C [10] [%]	viability, T/C [11] [%]	viability, T/C [12] [%]	viability, T/C [13] [%]	viability, T/C [14] [%]	viability, T/C [15] [%]	further results
CCc1c2c(nc3ccc(O)cc13)-c1cc3c(c(=O)n1C2)COC(=O)[C@]3(O)CC + NC1CCC(NC2CC2c2ccccc2)CC1	8.46	8.41	8.31	8.26	8.24	32.2	20.5	8.51	6.45	33.2	20.6	9.31	6.46	34.8	22.4	10.3	7.43	35.5	21.9	10.3	viability, T/C (second compound 0.1 µM, first compound 0.000949 µM): 64.2%; viability, T/C (second compound 0.1 µM, first compound 0.003 µM): 53.5%; viability, T/C (second compound 0.316 µM, first compound 0.000949 µM): 67.5%; viability, T/C (second compound 0.316 µM, first compound 0.003 µM): 55.5%; viability, T/C (second compound 1 µM, first compound 0.000949 µM): 69.5%; viability, T/C (second compound 1 µM, first compound 0.003 µM): 61.4%; viability, T/C (second compound 3.16 µM, first compound 0.000949 µM): 75%; viability, T/C (second compound 3.16 µM, first compound 0.003 µM): 65.3%; viability, T/C [16]: 7.23%; viability, T/C (second compound 10 µM, first compound 0.000949 µM): 86%; viability, T/C (second compound 10 µM, first compound 0.003 µM): 66.8%; viability, T/C [17]: 35.6%; viability, T/C [18]: 21.8%; viability, T/C [19]: 9.69%; viability, T/C [20]: 6.81%
Nc1ccccc1NC(=O)c1ccc(CNC(=O)OCc2cccnc2)cc1 + NC1CC1c1ccc(-c2cccc(O)c2)cc1	6.28	6.28	6.28	6.32	6.36	101	96.2	107	89.4	104	102	109	90.8	101	103	107	88.6	100	102	90.8	viability, T/C [21]: 8.16%; viability, T/C [22]: 0.69%; viability, T/C [23]: 8.21%; viability, T/C [24]: 0.84%; viability, T/C [25]: 7.91%; viability, T/C [26]: 0.77%; viability, T/C [16]: 80.6%; viability, T/C [27]: 6.04%; viability, T/C [28]: 0.79%; viability, T/C [17]: 88%; viability, T/C [18]: 82.6%; viability, T/C [19]: 82.3%; viability, T/C [20]: 70.9%; viability, T/C [29]: 8.68%; viability, T/C [30]: 0.61%
O=C(C=Cc1cccc(S(=O)(=O)Nc2ccccc2)c1)NO + NC1CC1c1ccc(-c2cccc(O)c2)cc1	6.42	6.39	6.38	6.41	6.51	99.8	104	102	63.1	100	98.5	100	67	104	103	103	69.9	92	89.5	97.2	viability, T/C [21]: 1.03%; viability, T/C [22]: 0.11%; viability, T/C [23]: 1.15%; viability, T/C [24]: 0.13%; viability, T/C [25]: 1.32%; viability, T/C [26]: 0.23%; viability, T/C [16]: 64.3%; viability, T/C [27]: 1.09%; viability, T/C [28]: 0.11%; viability, T/C [17]: 77%; viability, T/C [18]: 73.5%; viability, T/C [19]: 85.6%; viability, T/C [20]: 51.4%; viability, T/C [29]: 0.76%; viability, T/C [30]: 0.14%

— PubChem BioAssay AID1918932 (Molecular Pharmacology Branch, DTP, NCI, 2023)
